Data published in paper PMC5515969, “Effects of 31 FDA approved small-molecule kinase inhibitors on isolated rat liver mitochondria” (Archives of Toxicology, 2016).

System: RCC I–V
Experiment: Activities of RCC I–V, overall statements
Format: biochemical, rat
Details: submitochondrial particles, up to 100-fold Cmax or highest testable concentration
Experimental: KIs were incubated with submitochondrial particles (1 mg/ml) for 15 min and then RCC I–V activities measured. […] The activities of DMSO-treated samples (controls) were set as 1. […] The difference between the activity from rotenone-containing buffer and rotenone-absent buffer was considered as RCC I activity. […] For measuring RCC I/V and II activity, the changes in absorbance at 340 and 600 nm, respectively, were determined every 1 min for 6 min. For measuring RCC III and RCC IV, the changes in absorbance at 550 nm were measured every 10 s for 2 min.

Structure (SMILES)	RCCs inhibited
CC(C)(C)c1nc(-c2cccc(NS(=O)(=O)c3c(F)cccc3F)c2F)c(-c2ccnc(N)n2)s1 [Dabrafenib]	no effects on RCC activities

System: isolated rat liver mitochondria
Experiment: Mitochondrial toxicity, any endpoint, intact mitochondria and submitochondrial particles
Format: biochemical
Details: any endpoint
In short: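 Rat liver mitochondria isolated by differential centrifugation in sucrose/Tris-MOPS/EGTA buffer pH 7.4, adjusted to 1 mg/ml protein before treatment. Kinase inhibitors added at 1:1000 dilution of stock; final DMSO 0.1%, with 0.1% DMSO controls.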

Structure (SMILES)	lowest concentration causing significant mitochondrial toxicity [fold Cmax]
CC(C)(C)c1nc(-c2cccc(NS(=O)(=O)c3c(F)cccc3F)c2F)c(-c2ccnc(N)n2)s1 [Dabrafenib]	5

Same assay, conditions: concentrations equal to 100-fold Cmax

Structure (SMILES)	mitochondrial injury
CC[C@H](Nc1ncnc2[nH]cnc12)c1nc2cccc(F)c2c(=O)n1-c1ccccc1 [Idelalisib]	mitochondrial injury was induced

System: not listed separately
Experiment: Solubility of DMSO stock for 100X/50X Cmax testing
Format: physicochemical
Details: precipitation of DMSO stock
Excerpt: Supplement 204_2016_1918_MOESM3_ESM.xlsx, sheet "Sheet1" | column: 100 Cmax; 50 Cmax; note

Structure (SMILES)	note (DMSO stock)
CC[C@H](Nc1ncnc2[nH]cnc12)c1nc2cccc(F)c2c(=O)n1-c1ccccc1 [Idelalisib]	464 mM will precipitate
CC(=O)c1c(C)c2cnc(Nc3ccc(N4CCNCC4)cn3)nc2n(C2CCCC2)c1=O.Cl [palbociclib hydrochloride]	100X will precipitate

System: isolated rat liver mitochondria
Experiment: not given
Details: 1XCmax; positive control alamethicin treated samples

Structure (SMILES)	Cytochrome c release 1XCmax
CC(C)(C)c1nc(-c2cccc(NS(=O)(=O)c3c(F)cccc3F)c2F)c(-c2ccnc(N)n2)s1 [Dabrafenib]	0
CC[C@H](Nc1ncnc2[nH]cnc12)c1nc2cccc(F)c2c(=O)n1-c1ccccc1 [Idelalisib]	0
CC(=O)c1c(C)c2cnc(Nc3ccc(N4CCNCC4)cn3)nc2n(C2CCCC2)c1=O.Cl [palbociclib hydrochloride]	0

Same assay, conditions: 2.5XCmax; positive control alamethicin treated samples

Structure (SMILES)	Cytochrome c release 2.5XCmax
CC(C)(C)c1nc(-c2cccc(NS(=O)(=O)c3c(F)cccc3F)c2F)c(-c2ccnc(N)n2)s1 [Dabrafenib]	0
CC[C@H](Nc1ncnc2[nH]cnc12)c1nc2cccc(F)c2c(=O)n1-c1ccccc1 [Idelalisib]	0
CC(=O)c1c(C)c2cnc(Nc3ccc(N4CCNCC4)cn3)nc2n(C2CCCC2)c1=O.Cl [palbociclib hydrochloride]	0

Same assay, conditions: 5XCmax; positive control alamethicin treated samples

Structure (SMILES)	Cytochrome c release 5XCmax
CC(C)(C)c1nc(-c2cccc(NS(=O)(=O)c3c(F)cccc3F)c2F)c(-c2ccnc(N)n2)s1 [Dabrafenib]	19.44±2.10 percentage of the positive control group
CC[C@H](Nc1ncnc2[nH]cnc12)c1nc2cccc(F)c2c(=O)n1-c1ccccc1 [Idelalisib]	0
CC(=O)c1c(C)c2cnc(Nc3ccc(N4CCNCC4)cn3)nc2n(C2CCCC2)c1=O.Cl [palbociclib hydrochloride]	0

Same assay, conditions: 10XCmax; positive control alamethicin treated samples

Structure (SMILES)	Cytochrome c release 10XCmax
CC(C)(C)c1nc(-c2cccc(NS(=O)(=O)c3c(F)cccc3F)c2F)c(-c2ccnc(N)n2)s1 [Dabrafenib]	15.99±0.85 percentage of the positive control group
CC[C@H](Nc1ncnc2[nH]cnc12)c1nc2cccc(F)c2c(=O)n1-c1ccccc1 [Idelalisib]	0
CC(=O)c1c(C)c2cnc(Nc3ccc(N4CCNCC4)cn3)nc2n(C2CCCC2)c1=O.Cl [palbociclib hydrochloride]	0

Same assay, conditions: 20XCmax; positive control alamethicin treated samples

Structure (SMILES)	Cytochrome c release 20XCmax
CC(C)(C)c1nc(-c2cccc(NS(=O)(=O)c3c(F)cccc3F)c2F)c(-c2ccnc(N)n2)s1 [Dabrafenib]	17.52±7.37 percentage of the positive control group
CC[C@H](Nc1ncnc2[nH]cnc12)c1nc2cccc(F)c2c(=O)n1-c1ccccc1 [Idelalisib]	0
CC(=O)c1c(C)c2cnc(Nc3ccc(N4CCNCC4)cn3)nc2n(C2CCCC2)c1=O.Cl [palbociclib hydrochloride]	0

Same assay, conditions: 30XCmax; positive control alamethicin treated samples

Structure (SMILES)	Cytochrome c release 30XCmax
CC(C)(C)c1nc(-c2cccc(NS(=O)(=O)c3c(F)cccc3F)c2F)c(-c2ccnc(N)n2)s1 [Dabrafenib]	17.54±2.16 percentage of the positive control group
CC[C@H](Nc1ncnc2[nH]cnc12)c1nc2cccc(F)c2c(=O)n1-c1ccccc1 [Idelalisib]	0
CC(=O)c1c(C)c2cnc(Nc3ccc(N4CCNCC4)cn3)nc2n(C2CCCC2)c1=O.Cl [palbociclib hydrochloride]	0

Same assay, conditions: 50XCmax; positive control alamethicin treated samples

Structure (SMILES)	Cytochrome c release 50XCmax
CC(C)(C)c1nc(-c2cccc(NS(=O)(=O)c3c(F)cccc3F)c2F)c(-c2ccnc(N)n2)s1 [Dabrafenib]	21.81±7.02 percentage of the positive control group
CC[C@H](Nc1ncnc2[nH]cnc12)c1nc2cccc(F)c2c(=O)n1-c1ccccc1 [Idelalisib]	0
CC(=O)c1c(C)c2cnc(Nc3ccc(N4CCNCC4)cn3)nc2n(C2CCCC2)c1=O.Cl [palbociclib hydrochloride]	0

Same assay, conditions: 100XCmax; positive control alamethicin treated samples

Structure (SMILES)	Cytochrome c release 100XCmax
CC(C)(C)c1nc(-c2cccc(NS(=O)(=O)c3c(F)cccc3F)c2F)c(-c2ccnc(N)n2)s1 [Dabrafenib]	15.21±0.35 percentage of the positive control group
CC[C@H](Nc1ncnc2[nH]cnc12)c1nc2cccc(F)c2c(=O)n1-c1ccccc1 [Idelalisib]	0
CC(=O)c1c(C)c2cnc(Nc3ccc(N4CCNCC4)cn3)nc2n(C2CCCC2)c1=O.Cl [palbociclib hydrochloride]	0

System: not given
Experiment: not given
Details: BBW: black box warning; W&P: Warnings and Precautions; ref product labeling; cited from earlier work

Structure (SMILES)	Labeling for cardiotoxicity
CC(C)(C)c1nc(-c2cccc(NS(=O)(=O)c3c(F)cccc3F)c2F)c(-c2ccnc(N)n2)s1 [Dabrafenib]	W&P: Cardiomyopathy

Same assay, conditions: ref product labeling; cited from earlier work

Structure (SMILES)	Potential for cardiotoxicity (based on labeling)
CC(C)(C)c1nc(-c2cccc(NS(=O)(=O)c3c(F)cccc3F)c2F)c(-c2ccnc(N)n2)s1 [Dabrafenib]	1
CC[C@H](Nc1ncnc2[nH]cnc12)c1nc2cccc(F)c2c(=O)n1-c1ccccc1 [Idelalisib]	0
CC(=O)c1c(C)c2cnc(Nc3ccc(N4CCNCC4)cn3)nc2n(C2CCCC2)c1=O.Cl [palbociclib hydrochloride]	0

System: isolated rat liver mitochondria
Experiment: Mitochondrial ROS production (CM-H2DCFDA)
Details: not given

Structure (SMILES)	lowest concentration triggering ROS overproduction [fold Cmax]
CC(C)(C)c1nc(-c2cccc(NS(=O)(=O)c3c(F)cccc3F)c2F)c(-c2ccnc(N)n2)s1 [Dabrafenib]	50

Same assay, conditions: 1XCmax; DMSO treated samples set as 1

Structure (SMILES)	ROS measured by CM-H2DCFDA at 1XCmax
CC(C)(C)c1nc(-c2cccc(NS(=O)(=O)c3c(F)cccc3F)c2F)c(-c2ccnc(N)n2)s1 [Dabrafenib]	0
CC[C@H](Nc1ncnc2[nH]cnc12)c1nc2cccc(F)c2c(=O)n1-c1ccccc1 [Idelalisib]	0
CC(=O)c1c(C)c2cnc(Nc3ccc(N4CCNCC4)cn3)nc2n(C2CCCC2)c1=O.Cl [palbociclib hydrochloride]	0

Same assay, conditions: 2.5XCmax; DMSO treated samples set as 1

Structure (SMILES)	ROS measured by CM-H2DCFDA at 2.5XCmax
CC(C)(C)c1nc(-c2cccc(NS(=O)(=O)c3c(F)cccc3F)c2F)c(-c2ccnc(N)n2)s1 [Dabrafenib]	0
CC[C@H](Nc1ncnc2[nH]cnc12)c1nc2cccc(F)c2c(=O)n1-c1ccccc1 [Idelalisib]	0
CC(=O)c1c(C)c2cnc(Nc3ccc(N4CCNCC4)cn3)nc2n(C2CCCC2)c1=O.Cl [palbociclib hydrochloride]	0

Same assay, conditions: 5XCmax; DMSO treated samples set as 1

Structure (SMILES)	ROS measured by CM-H2DCFDA at 5XCmax
CC(C)(C)c1nc(-c2cccc(NS(=O)(=O)c3c(F)cccc3F)c2F)c(-c2ccnc(N)n2)s1 [Dabrafenib]	0
CC[C@H](Nc1ncnc2[nH]cnc12)c1nc2cccc(F)c2c(=O)n1-c1ccccc1 [Idelalisib]	0
CC(=O)c1c(C)c2cnc(Nc3ccc(N4CCNCC4)cn3)nc2n(C2CCCC2)c1=O.Cl [palbociclib hydrochloride]	0

Same assay, conditions: 10XCmax; DMSO treated samples set as 1

Structure (SMILES)	ROS measured by CM-H2DCFDA at 10XCmax
CC(C)(C)c1nc(-c2cccc(NS(=O)(=O)c3c(F)cccc3F)c2F)c(-c2ccnc(N)n2)s1 [Dabrafenib]	0
CC[C@H](Nc1ncnc2[nH]cnc12)c1nc2cccc(F)c2c(=O)n1-c1ccccc1 [Idelalisib]	0
CC(=O)c1c(C)c2cnc(Nc3ccc(N4CCNCC4)cn3)nc2n(C2CCCC2)c1=O.Cl [palbociclib hydrochloride]	0

Same assay, conditions: 20XCmax; DMSO treated samples set as 1

Structure (SMILES)	ROS measured by CM-H2DCFDA at 20XCmax
CC(C)(C)c1nc(-c2cccc(NS(=O)(=O)c3c(F)cccc3F)c2F)c(-c2ccnc(N)n2)s1 [Dabrafenib]	0
CC[C@H](Nc1ncnc2[nH]cnc12)c1nc2cccc(F)c2c(=O)n1-c1ccccc1 [Idelalisib]	0
CC(=O)c1c(C)c2cnc(Nc3ccc(N4CCNCC4)cn3)nc2n(C2CCCC2)c1=O.Cl [palbociclib hydrochloride]	0

Same assay, conditions: 30XCmax; DMSO treated samples set as 1

Structure (SMILES)	ROS measured by CM-H2DCFDA at 30XCmax
CC(C)(C)c1nc(-c2cccc(NS(=O)(=O)c3c(F)cccc3F)c2F)c(-c2ccnc(N)n2)s1 [Dabrafenib]	0
CC[C@H](Nc1ncnc2[nH]cnc12)c1nc2cccc(F)c2c(=O)n1-c1ccccc1 [Idelalisib]	0
CC(=O)c1c(C)c2cnc(Nc3ccc(N4CCNCC4)cn3)nc2n(C2CCCC2)c1=O.Cl [palbociclib hydrochloride]	0

Same assay, conditions: 50XCmax; DMSO treated samples set as 1

Structure (SMILES)	ROS measured by CM-H2DCFDA at 50XCmax
CC(C)(C)c1nc(-c2cccc(NS(=O)(=O)c3c(F)cccc3F)c2F)c(-c2ccnc(N)n2)s1 [Dabrafenib]	2.23±0.44
CC[C@H](Nc1ncnc2[nH]cnc12)c1nc2cccc(F)c2c(=O)n1-c1ccccc1 [Idelalisib]	0
CC(=O)c1c(C)c2cnc(Nc3ccc(N4CCNCC4)cn3)nc2n(C2CCCC2)c1=O.Cl [palbociclib hydrochloride]	0

Same assay, conditions: 100XCmax; DMSO treated samples set as 1

Structure (SMILES)	ROS measured by CM-H2DCFDA at 100XCmax
CC(C)(C)c1nc(-c2cccc(NS(=O)(=O)c3c(F)cccc3F)c2F)c(-c2ccnc(N)n2)s1 [Dabrafenib]	1.80±0.16
CC[C@H](Nc1ncnc2[nH]cnc12)c1nc2cccc(F)c2c(=O)n1-c1ccccc1 [Idelalisib]	0
CC(=O)c1c(C)c2cnc(Nc3ccc(N4CCNCC4)cn3)nc2n(C2CCCC2)c1=O.Cl [palbociclib hydrochloride]	0

Same assay, conditions: highest tested concentrations

Structure (SMILES)	effect on ROS production
CC(C)(C)c1nc(-c2cccc(NS(=O)(=O)c3c(F)cccc3F)c2F)c(-c2ccnc(N)n2)s1 [Dabrafenib]	significantly ROS production
